pIC50: −log10 of the molar value.

The target in data set [1] is Protein farnesyltransferase (Homo sapiens, UniProt P49354+P49356). In words: In vitro inhibitory activity was evaluated against farnesyltransferase (FTase). The class given is protein-complex assay.
Data set [2] can be described thus: (§1) Half life of compound determined in rat after iv administration at a dose of 10 mg/kg. The class given is ADME, organism-based. The settings on record: in vivo. Set-up: dose 10 mg/kg, route intravenous.
Data set [3] in a line: Area under curve of compound determined in dog after iv administration at a dose of 10 mg/kg. The class given is ADME, organism-based, Canis lupus familiaris. Particulars: in vivo. Set-up: dose 10 mg/kg, route intravenous.
Data set [4] in a line: Tmax of compound determined in rat after iv administration at a dose of 10 mg/kg. The class given is ADME, organism-based. Set-up: dose 10 mg/kg, route intravenous. The settings on record: in vivo.
A further data set has as its system Rattus norvegicus. In words: Maximum plasma drug concentration of compound determined in rat after iv administration at a dose of 10 mg/kg. The class given is ADME, organism-based. Set-up: dose 10 mg/kg, route intravenous. Particulars: in vivo.
A short description of data set [5]: Area under curve of compound from zero time to infinity determined in dog […] at a dose of 10 mg/kg. The class given is ADME, organism-based, Canis lupus familiaris. Set-up: time infinity, dose 10 mg/kg, route intravenous. The settings on record: in vivo.
The nature of data set [6]: Oral bioavailability of compound determined in mouse […] at a dose of 10 mg/kg. The class given is ADME, organism-based. The settings on record: in vivo.
Data set [7] can be described thus: as §1. The settings on record: in vivo. The class given is ADME, organism-based. Set-up: dose 10 mg/kg, route intravenous. This is another data set of the same source.
For a further data set, the system named is Canis familiaris. In words: Maximum plasma drug concentration of compound determined in dog […] at a dose of 10 mg/kg. The class given is ADME, organism-based, Canis lupus familiaris. Set-up: dose 10 mg/kg, route intravenous. The settings on record: in vivo.
The nature of data set [8]: Oral bioavailability of compound determined in rat […] at a dose of 10 mg/kg. The class given is ADME, organism-based. The settings on record: in vivo.
Data set [9] in a line: Tmax of compound determined in dog […] at a dose of 10 mg/kg. The class given is ADME, organism-based, Canis lupus familiaris. Set-up: dose 10 mg/kg, route intravenous. The settings on record: in vivo.
A short description of data set [10]: Area under curve of compound from zero time to infinity determined in rat after iv administration at a dose of 10 mg/kg. The class given is ADME, organism-based. Set-up: time infinity, dose 10 mg/kg, route intravenous. Particulars: in vivo.
Data set [11] in a line: Area under curve of compound determined in rat after iv administration at a dose of 10 mg/kg. Particulars: in vivo. The class given is ADME, organism-based. Set-up: dose 10 mg/kg, route intravenous.
Data set [12] is described as follows: Oral bioavailability of compound determined in dog […] at a dose of 10 mg/kg. Particulars: in vivo. The class given is ADME, organism-based, Canis lupus familiaris.

Broadly, the pIC50 is the IC50 on a negative log10 scale, so that one unit is a factor of ten. Read a high pIC50 as a low IC50. In data set [1], `CSCC[C@H](NC(=O)c1ccc(COCc2ccc(-c3ccccc3F)o2)cc1-c1ccccc1C)C(=O)O` gave a negative logarithm of the IC50 (pIC50) of 8.20.
The compound `CSCC[C@H](NC(=O)c1ccc(COCc2ccc(-c3cccc(F)c3)o2)cc1-c1ccccc1C)C(=O)O` gave a pIC50 in data set [1] of 8.12.
The compound `CSCC[C@H](NC(=O)c1ccc(COCc2ccc(-c3ccccn3)o2)cc1-c1ccccc1C)C(=O)O` showed a pIC50 in data set [1] of 7.72.
`CSCC[C@H](NC(=O)c1ccc(COCc2ccc(-c3ccc(C(C)=O)cc3)o2)cc1-c1ccccc1C)C(=O)O` had a pIC50 in data set [1] of 8.18.
Same read-out and setting: next, `CSCC[C@H](NC(=O)c1ccc(COCc2ccc(-c3ccncc3)o2)cc1-c1ccccc1C)C(=O)O`: 8.62.
Same read-out and setting: next, `CSCC[C@H](NC(=O)c1ccc(COCc2ccc(-c3cccc([N+](=O)[O-])c3)o2)cc1-c1ccccc1C)C(=O)O`: 8.22.
Same read-out and setting: the same measure for `CSCC[C@H](NC(=O)c1ccc(COCc2ccc(-c3ccc(C)cc3)o2)cc1-c1ccccc1C)C(=O)O`: 8.54; for `CSCC[C@H](NC(=O)c1ccc(COCc2ccc(-c3ccc(C(F)(F)F)cc3)o2)cc1-c1ccccc1C)C(=O)O`: 8.52.
On to `CSCC[C@H](NC(=O)c1ccc(COCc2ccc(-c3ccc(Cl)c(F)c3)o2)cc1-c1ccccc1C)C(=O)O`, for which, in data set [1], the pIC50 is 8.31.
The same measure, in the same setting: the same measure for `COC(=O)[C@H](CCSC)NC(=O)c1ccc(COCc2ccc(Br)o2)cc1-c1ccccc1C`: 8.52; for `CSCC[C@H](NC(=O)c1ccc(COCc2ccc(-c3ccc(C=O)cc3)o2)cc1-c1ccccc1C)C(=O)O`: 8.92.
Same read-out and setting: next, `CSCC[C@H](NC(=O)c1ccc(CNCc2ccco2)cc1-c1ccccc1)C(=O)O`: 6.25; `CSCC[C@H](NC(=O)c1ccc(COCc2ccc(-c3ccc(C(C)C)cc3)o2)cc1-c1ccccc1C)C(=O)O`: 8.54.
In turn, `COc1cccc(-c2ccc(COCc3ccc(C(=O)N[C@@H](CCSC)C(=O)O)c(-c4ccccc4C)c3)o2)c1` had a pIC50 in data set [1] of 7.92.
With `CSCC[C@H](NC(=O)c1ccc(COCc2ccc(-c3ccc(F)cc3)o2)cc1-c1ccccc1C)C(=O)O`, in data set [1], the pIC50 is 8.82.
Same read-out and setting: next, `CSCC[C@H](NC(=O)c1ccc(COCc2ccc(-c3ccc(N(C)C)cc3)o2)cc1-c1ccccc1C)C(=O)O`: 8.59; `CSCC[C@H](NC(=O)c1ccc(COCc2ccc(-c3ccccc3C(F)(F)F)o2)cc1-c1ccccc1C)C(=O)O`: 8.00.
Still for that read-out and setting: the same measure for `COc1ccc(-c2ccc(COCc3ccc(C(=O)N[C@@H](CCSC)C(=O)O)c(-c4ccccc4C)c3)o2)cc1`: 8.08; for `CSCC[C@H](NC(=O)c1ccc(COCc2ccc(-c3cccc(C(F)(F)F)c3)o2)cc1-c1ccccc1C)C(=O)O`: 8.06; for `CSCC[C@H](NC(=O)c1ccc(COc2ccccc2)cc1-c1ccccc1)C(=O)O`: below 6.00.
In the case of `CSCC[C@H](NC(=O)c1ccc(COCc2ccc(-c3ccccc3)o2)cc1-c1ccccc1C)C(=O)O`, the pIC50 in data set [1] was 8.22.
Still for that read-out and setting: the same measure for `CSCC[C@H](NC(=O)c1ccc(COCc2ccc(-c3ccc(SC)cc3)o2)cc1-c1ccccc1C)C(=O)O`: 8.21.
In the case of `COc1ccccc1-c1ccc(COCc2ccc(C(=O)N[C@@H](CCSC)C(=O)O)c(-c3ccccc3C)c2)o1`, the pIC50 in data set [1] is 7.70.
The same measure, in the same setting: next, `CSCC[C@H](NC(=O)c1ccc(COCc2ccc(-c3cccnc3)o2)cc1-c1ccccc1C)C(=O)O`: 8.19.
What is called half-life is the time in which the quantity being followed falls by half. Read a low half-life as fast loss. As a reminder, the AUC is the area under the concentration-time curve, a measure of exposure. Read a high AUC as more exposure. Broadly, the Tmax is the time at which the peak concentration occurs. What is called Cmax is the peak of the concentration-time curve. One may read the bioavailability as dose-corrected exposure relative to a reference, in per cent. A high value points to much systemic uptake. Take `CSCC[C@H](NC(=O)c1ccc(COCc2ccc(-c3ccc(Cl)cc3)o2)cc1-c1ccccc1C)C(=O)[O-].[Li+]`: the half-life was 78 min in data set [2] and 74.4 min in [7]. Also, the AUC in data set [3] is 4940 ng·h/mL; in [5], 1040 ng·h/mL; in [10], 2390 ng·h/mL; in data set [11] it was 8100 ng·h/mL. Moreover, the Tmax in [4] is 42 min; in [9] it was 24 min. For the same compound, the figures for the maximum concentration (Cmax) in the data set on Rattus norvegicus and with Canis familiaris were 1250 ng/mL and 713 ng/mL, respectively. Moreover, the bioavailability came to 32% in data set [6], 30% in data set [8] and 21.1% in data set [12]. The compound further showed a pIC50 in data set [1] of 9.15.

For the origin of these results see ChEMBL document CHEMBL1131673, “Potent and orally bioavailable noncysteine-containing inhibitors of protein farnesyltransferase” (Bioorg Med Chem Lett, 1999).
